Columns and labels:
caspase-3, Bid and Bax = experiment: Western blotting of caspase-3 activation, Bid and Bax in primary rat hepatocytes; assay type: cell-based
Text: Male outbred Sprague-Dawley rats (200-300 g, Iffa Credo, Brussels, Belgium) were kept under controlled environmental conditions (12-hr light-dark cycle) and fed a standard diet (Animafabo A04, water ad libitum). Hepatocytes were isolated by a two-step collagenase perfusion as described (De Smet et al. In ‘Methods in Molecular Biology, Vol. 107: Cytochrome P450 Protocols’, Philips I R and Shephard E A, eds., pp 295-301, Humana Press, Totowa, 1998). Cell liability was >90% as determined by trypan blue exclusion. Cells (0.4×10^5 cells/cm^2) were plated in MEM/M199 (3:1), containing BSA (1 mg/ml), bovine insulin (10 μg/ml), L-glutamine (2 mM), FBS (10% v/v) and antibiotics (7.3 IU/ml benzyl penicillin, 50 μg/ml streptomycin sulphate, 50 μg/ml kanamycin monosulphstep and 10 μg/ml sodium ampicillin). Four hours after plating, serum-containing medium was removed and fresh serum-free medium was added to the cultures. Culture medium was refreshed daily. EGF (50 ng/ml) was added 4 hours after plating. A 100 mM stock solution of 4-Me2N-BAVAH was prepared in ethanol.
Total cell extracts were prepared as described previously (Papeleu et al. J Hepatol 39: 374-382, 2003) and proteins (25 or 50 μg per lane) were separated electrophoretically by SDS-PAGE and electroblotted onto nitrocellulose membranes (Amersham Pharmacia Biotech, Buckinghamshire, UK). Equal sample loading was verified by immersion of the membranes in Ponceau S. Unspecific binding sites were blocked with 5% skim milk/Tris-buffered saline. Incubations with primary antibodies were performed overnight at 4° C. under gentle shaking. Proteins were detected using the ECL detection system (Amersham Pharmacia Biotech, Buckinghamshire, UK) according to the manufacturer's recommendations.

rat hepatocytes = experiment: Lactate dehydrogenase index and morphology in cultured rat hepatocytes; assay type: cell-based; conditions: 50 μM
Description: The % LDH leakage of the cells was calculated as the result of the ratio: [100×LDH activity in supernatant]/[LDH activity in (supernatant+cells)]
Medium samples were collected at 72 hours of culture and analyzed for their albumin content by an enzyme-linked immunosorbent assay (ELISA) as described (Dunn et al. Biotechnol Prog 7: 237-245, 1991) Cell morphology was analyzed by light microscopy (×100). Pictures were taken using an Optiphot Nikon Phase Contrast microscope (Cetec, Brussels, Belgium).

C/EBPalpha = experiment: Western blotting of C/EBPalpha in primary hepatocytes; assay type: cell-based, rat; conditions: 1 μM TSA added at 0h or 4 h; day 4 and 7
Text: (§1) Hepatocytes were isolated from male Sprague-Dawley rats by a two-step collagenase perfusion as described (De Smet et al. In ‘Methods in Molecular Biology, Vol. 107: Cytochrome P450 Protocols’, Philips IR and Shephard E A, eds., p.p 295-301, Humana Press, Totowa, 1998). Hepatocytes were cultivated in monolayer cultures with Willam's E Medium (WE) for 7 days. […] The maintenance of differentiation characteristics was studied after 2, 4, and 7 days (D2, D4, D7) of culture.
Western blotting was performed using standard techniques known in the art. Proteins (25 μg) were resolved on a 10% SDS-PAGE and blotted onto nitrocellulose membrane. The membranes were incubated with appropriate concentrations of primary and secondary antibodies. Proteins were detected using appropriate dilutions of primary and secondary antibodies. Detection was done using the ECL detection system (Amersham Pharmacia Biotech, UK) according to manufacturer's recommendations.

CYP 1A1 = CYP 1A1 activity (ethoxyresorufin conversion) in cultured rat hepatocytes; assay type: cell-based
Text: as §1
Phase I biotransformation was assessed by means of activity measurements of the microsomal cytochrome P450 (CYP) 1A1 and 2B1/2 iso-enzymes, using standard techniques known in the art (i.e., measuring conversion of ethoxyresorufin into hydroxyresorufin for CYP 1A1 and conversion of penthoxyresorufin to hydroxyresorufin for CYP 2B1/2) (Burke et al. Drug Metab Dispos 2:583-588, 1974). Microsomes were prepared from freshly isolated and hepatocytes cultured for 7 days according to Hales et al. (Biochem Pharmacol 26:555-556, 1977).

| Compound | expression of pro-apoptotic proteins Bid and Bax (caspase-3, Bid and Bax; 50 μM) | cleavage of pro-caspase-3 into active p18 fragments (caspase-3, Bid and Bax; 24 and 48 hours of culture) | cleavage of pro-caspase-3 into active p18 fragments (caspase-3, Bid and Bax; after 72 hours of treatment) | cytotoxicity (LDH leakage, morphology) (rat hepatocytes) | expression of C/EBPalpha (C/EBPalpha) | activity of CYP 1A1 versus EtOH-treated controls (CYP 1A1; 1 μM TSA starting at 0 h or 4 h, day 4 and 7) | CYP 1A1/2 Activity (CYP 1A1; 7-day conventionally cultured adult rat hepatocytes, 1 μm TSA) |
| --- | --- | --- | --- | --- | --- | --- | --- |
| CN(C)c1ccc(C(=O)NCCCCC(=O)NO)cc1 [4-Me2N-BAVAH, 5-(4-dimethylaminobenzoyl)-aminovaleric acid hydroxamide] | decreased the expression | significantly lower | completely prevented | not due to cytotoxicity | – | – | – |
| CC(C=CC(=O)NO)=CC(C)C(=O)c1ccc(N(C)C)cc1 (stereo not shown) [TSA] | – | – | – | – | increase expression | significantly higher | 4.3 ± 0.6 pmol resorufin/minute mg microsomal protein |

From patent US20090130064A1, “DIFFERENTIATION OF STEM CELLS AND STABILIZATION OF PHENOTYPICAL PROPERTIES OF PRIMARY CELLS” (priority 2004, published 2009)
